Consider 14 compounds from patent US7713994B2 (Wyeth LLC, priority 2005, dated 2010).

Structures are written as SMILES. Where two headings read alike, the source gives them in different places. Some results are limits rather than exact numbers.

What is called IC50 is the concentration that gives 50% inhibition.

One assay concerns MCF-7. As to the kind of experiment: Cytotoxicity assay (SRB), MCF-7. Format: cell-based. The following applies: Homo sapiens, MCF7, 72 h, MCF-7 cells, SRB, read-out: In Vitro Cellular Activity IC50 MCF-7. The method in brief: (§1)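 Seeding: BT474 12000, HCT-116 4000, LoVo 6000, MCF-7 6000 cells/well; overnight attachment, 37 °C, 7% CO2. Drug exposure 3 d (BT474 6 d), RPMI 1640 + 5% FBS. Readout: TCA fix, 0.4% SRB, Tris solubilisation, A540.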

For a further assay, the target named is T1, cyclin B/CDK1 enzyme (Homo sapiens, UniProt P06493).
T1 construct: purchased New England BioLabs; host or cells: Sf9 insect cells, recombinant baculovirus
As to the kind of experiment: CDK1 ELISA kinase assay (phospho-Rb ser 795 detection). It counts as biochemical. The method, boiled down: (§2)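 Sf9-derived cyclin/CDK, 200 μM ATP, immobilized GST-Rb; 30° C/1 h. Detection: phospho-Ser795 Ab, HRP, TMB, OD450.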

Another assay addresses T2, cyclin E/CDK2 enzyme (Homo sapiens, UniProt P24941).
T2 construct: made in house; host or cells: Sf9 insect cells, recombinant baculovirus
As to the kind of experiment: CDK2 ELISA kinase assay (phospho-Rb ser 795 detection). It counts as biochemical. The method, boiled down:
as §2
In general terms: In an ELISA, binding on a coated surface is turned into a signal by an enzyme label.

The subject of another assay is HCT-116. As to the kind of experiment: Cytotoxicity assay (SRB), HCT-116. It counts as cell-based. The following applies: Homo sapiens, HCT-116, 72 h, HCT116 cells, SRB, read-out: In Vitro Cellular Activity IC50 HCT116. The method in brief:
as §1

Another assay concerns the target T3, cyclin D1/cdk 4 enzyme (Homo sapiens, UniProt P11802).
T3 construct: made in house; host or cells: Sf9 insect cells, recombinant baculovirus
As to the kind of experiment: CDK4 ELISA kinase assay (phospho-Rb ser 795 detection). It counts as biochemical. The method in brief:
as §2

The test system of the next assay is BT474. The assay is described as follows: Cytotoxicity assay (SRB), BT474. Format: cell-based. The method in brief:
as §1

The subject of another assay is LoVo. As to the kind of experiment: Cytotoxicity assay (SRB), LoVo. The following applies: Homo sapiens, LoVo, 72 h, LoVo cells, SRB, read-out: In Vitro Cellular Activity IC50 LOVO. It counts as cell-based. The method, boiled down:
as §1

The mark [1] stands for this setting: In Vitro Enzyme Assays, read-out: CDK1 IC50.
Where [2] appears, read: In Vitro Enzyme Assays, read-out: CDK2 IC50.
[3] abbreviates: In Vitro Enzyme Assays, 200 μM ATP, read-out: CDK4 IC50.
Where [4] appears, read: Homo sapiens, BT-474, 144 h, BT474 cells, SRB, 6 days; read-out: In Vitro Cellular Activity IC50 BT474.
The mark [5] stands for this setting: In Vitro Enzyme Assay, cyclin B/CDK1, read-out: CDK1 IC50.
The mark [6] stands for this setting: In Vitro Enzyme Assay, cyclin E/CDK2, read-out: CDK2 IC50.
Where [7] appears, read: In Vitro Enzyme Assay, cyclin D1/cdk 4, read-out: CDK4 IC50.
Setting [8] is: Homo sapiens, BT-474, 144 h, BT474 cells, 6 days, SRB; read-out: In Vitro Cellular Activity IC50 BT474.

T3 sequence (P11802 whole entry, species assumed): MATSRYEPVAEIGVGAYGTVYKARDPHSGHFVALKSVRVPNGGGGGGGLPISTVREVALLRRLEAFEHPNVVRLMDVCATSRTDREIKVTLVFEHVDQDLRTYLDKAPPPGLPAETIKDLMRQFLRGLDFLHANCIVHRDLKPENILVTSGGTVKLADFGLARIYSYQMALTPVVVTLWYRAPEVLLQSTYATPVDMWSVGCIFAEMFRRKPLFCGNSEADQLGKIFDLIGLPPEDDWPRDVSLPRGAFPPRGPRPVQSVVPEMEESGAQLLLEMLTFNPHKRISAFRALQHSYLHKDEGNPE
T3 sequence (P24385 whole entry partner, species assumed): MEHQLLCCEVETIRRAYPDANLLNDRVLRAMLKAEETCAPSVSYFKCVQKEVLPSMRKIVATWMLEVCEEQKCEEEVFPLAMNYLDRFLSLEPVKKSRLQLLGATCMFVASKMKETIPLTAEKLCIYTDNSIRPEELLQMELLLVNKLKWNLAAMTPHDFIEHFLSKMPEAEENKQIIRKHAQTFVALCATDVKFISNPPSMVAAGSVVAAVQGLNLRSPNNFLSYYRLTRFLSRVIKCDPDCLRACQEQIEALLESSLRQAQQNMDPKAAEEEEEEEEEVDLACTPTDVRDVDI
T1 sequence (P06493 whole entry): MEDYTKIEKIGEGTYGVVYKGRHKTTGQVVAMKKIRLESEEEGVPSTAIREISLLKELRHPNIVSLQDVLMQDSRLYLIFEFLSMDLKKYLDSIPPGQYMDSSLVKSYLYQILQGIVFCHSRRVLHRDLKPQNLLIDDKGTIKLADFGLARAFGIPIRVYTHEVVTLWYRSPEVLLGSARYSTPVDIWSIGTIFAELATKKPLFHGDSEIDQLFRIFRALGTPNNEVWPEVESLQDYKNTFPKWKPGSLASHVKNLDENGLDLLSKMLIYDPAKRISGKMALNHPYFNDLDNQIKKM
T1 sequence (P14635 whole entry partner): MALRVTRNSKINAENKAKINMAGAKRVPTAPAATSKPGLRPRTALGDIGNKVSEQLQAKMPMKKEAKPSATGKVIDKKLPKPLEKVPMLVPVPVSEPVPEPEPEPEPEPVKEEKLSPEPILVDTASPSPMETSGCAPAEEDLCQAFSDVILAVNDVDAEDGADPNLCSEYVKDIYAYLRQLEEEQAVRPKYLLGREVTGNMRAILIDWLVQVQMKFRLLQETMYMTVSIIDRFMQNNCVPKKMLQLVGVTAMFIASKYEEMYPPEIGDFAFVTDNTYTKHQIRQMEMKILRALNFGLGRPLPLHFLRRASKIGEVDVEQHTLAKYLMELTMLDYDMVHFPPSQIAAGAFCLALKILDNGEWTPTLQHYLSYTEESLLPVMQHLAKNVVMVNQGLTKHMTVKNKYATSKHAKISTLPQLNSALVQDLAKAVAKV

Consider `CN1CCN(CCN(C)c2ccc(NC=C3C(=O)NC(=O)c4ccc(Br)cc43)cc2)CC1` (stereo in doubt) [Example 261, (4Z)-6-Bromo-4-{[(4-{methyl[2-(4-methylpiperazin-1-yl)ethyl]amino}phenyl)amino]methylene}isoquinoline-1,3(2H,4H)-dione], for which the IC50 with MCF-7 (three days) was 9.2 µM; on cyclin B/CDK1 enzyme (setting [1]), above 50 µM; on cyclin E/CDK2 enzyme (setting [2]) it was above 50 µM; with HCT-116 (three days), 3 µM; at cyclin D1/cdk 4 enzyme (setting [3]), 2.6 µM; in the assay with BT474 (setting [4]) it was 10 µM. Further, the IC50 in the assay on LoVo (three days) was 10 µM.
In the case of `CC(=O)c1cccc(-c2ccc3c(c2)C(=CNCc2ccc(O)c(O)c2)C(=O)NC3=O)c1` [Example 776, 6-(3-Acetyl-phenyl)-4-[(3,4-dihydroxy-benzylamino)-methylene]-4H-isoquinoline-1,3-dione], the IC50 in the assay with MCF-7 (3 days) was 11.2 µM; at cyclin B/CDK1 enzyme (setting [5]), above 50 µM; on cyclin E/CDK2 enzyme (setting [6]), 13.8 µM; with HCT-116 (3 days), 15.2 µM; at cyclin D1/cdk 4 enzyme (setting [7]), 0.24 µM; in the assay with BT474 (setting [8]) it was 17.2 µM. Besides, the half-inhibitory concentration (IC50) with LoVo (3 days) is 10.3 µM.
Turning to `NS(=O)(=O)c1ccc(CNC=C2C(=O)NC(=O)c3ccc(-c4ccc(Cl)cc4)cc32)cc1` [Example 749, 4-({[6-(4-Chloro-phenyl)-1,3-dioxo-2,3-dihydro-1H-isoquinolin-4-ylidenemethyl]-amino}-methyl)-benzenesulfonamide], the IC50 in the assay with MCF-7 (3 days) was 14.1 µM; on cyclin B/CDK1 enzyme (setting [5]), 38.8 µM; on cyclin E/CDK2 enzyme (setting [6]) it was 8 µM; in the assay with HCT-116 (3 days), 20.9 µM; at cyclin D1/cdk 4 enzyme (setting [7]), 1.48 µM; in the assay on BT474 (setting [8]) it was above 50 µM. Moreover, the IC50 in the assay with LoVo (3 days) was 47.2 µM.
`CC(C)N1CCN(c2ccc(N/C=C3\C(=O)NC(=O)c4ccc(-c5ccsc5)cc43)cn2)CC1` [Example 417, (4Z)-4-({[6-(4-Isopropylpiperazin-1-yl)pyridin-3-yl]amino}methylene)-6-(3-thienyl)isoquinoline-1,3(2H,4H)-dione]: the IC50 was 3.2 µM with MCF-7 (3 days); above 50 µM on cyclin B/CDK1 enzyme (setting [1]); above 50 µM on cyclin E/CDK2 enzyme (setting [2]); 1.3 µM in the assay on HCT-116 (3 days); 0.03 µM on cyclin D1/cdk 4 enzyme (setting [3]); 2.8 µM in the assay with BT474 (setting [8]). Moreover, the IC50 in the assay on LoVo (3 days) stood at 3.1 µM.
In the case of `O=C1NC(=O)c2ccc(Br)cc2/C1=C/NCCCN1CCCC1=O` [Example 311, (Z)-6-Bromo-4-((3-(2-oxopyrrolidin-1-yl)propylamino)methylene)isoquinoline-1,3(2H,4H)-dione], the IC50 was 13 µM in the assay on MCF-7 (three days); above 50 µM at cyclin B/CDK1 enzyme (setting [1]); above 50 µM at cyclin E/CDK2 enzyme (setting [2]); 29 µM with HCT-116 (three days); 8.6 µM on cyclin D1/cdk 4 enzyme (setting [3]); 38 µM in the assay on BT474 (setting [4]). Moreover, in the assay on LoVo (three days), the IC50 was found to be 19 µM.
Regarding `O=C1NC(=O)c2ccc(N3CCCC3)cc2/C1=C/NCc1ccc(O)c(O)c1` [Example 609, 4-[(3,4-Dihydroxy-benzylamino)-methylene]-6-pyrrolidin-1-yl-4H-isoquinoline-1,3-dione], the half-maximal inhibitory concentration (IC50) with MCF-7 (3 days) was found to be 13.6 µM; at cyclin B/CDK1 enzyme (setting [5]), 11.8 µM; at cyclin E/CDK2 enzyme (setting [6]) it was 12.1 µM; with HCT-116 (3 days), 30.6 µM; at cyclin D1/cdk 4 enzyme (setting [7]), 0.02 µM; in the assay on BT474 (setting [8]), 18.3 µM. Besides, in the assay with LoVo (3 days), the IC50 is 19.1 µM.
As for `CN(C)c1ccc(-c2ccc3c(c2)C(=CNCc2ccc(O)c(O)c2)C(=O)NC3=O)cc1` [Example 816, 4-[(3,4-Dihydroxy-benzylamino)-methylene]-6-(4-dimethylamino-phenyl)-4H-isoquinoline-1,3-dione], the IC50 was 10.1 µM in the assay with MCF-7 (3 days); above 50 µM on cyclin B/CDK1 enzyme (setting [5]); 24.2 µM at cyclin E/CDK2 enzyme (setting [6]); 11.6 µM with HCT-116 (3 days); 0.31 µM at cyclin D1/cdk 4 enzyme (setting [7]); 4 µM in the assay with BT474 (setting [8]). The IC50 in the assay on LoVo (3 days) amounted to 10.2 µM.
In the case of `O=C1CC[C@@H](CN/C=C2\C(=O)NC(=O)c3ccc(I)cc32)N1` (stereo in doubt) [Example 427, 6-Iodo-4-{[(5-oxo-pyrrolidin-2-ylmethyl)-amino]-methylene}-4H-isoquinoline-1,3-dione], the IC50 with MCF-7 (3 days) was 22.4 µM; on cyclin B/CDK1 enzyme (setting [1]), above 50 µM; on cyclin E/CDK2 enzyme (setting [2]), above 50 µM; in the assay on HCT-116 (3 days) it was 17.8 µM; at cyclin D1/cdk 4 enzyme (setting [3]) it was 2.1 µM; in the assay with BT474 (setting [8]), 23.2 µM. In addition, the IC50 in the assay with LoVo (3 days) came out at 22.7 µM.
Take `CN(C)CC1CCCN1c1ccc(N/C=C2\C(=O)NC(=O)c3ccc(I)cc32)cc1F` (centres unmarked) [Example 412, 4-{[4-(2-Dimethylaminomethyl-pyrrolidin-1-yl)-3-fluoro-phenylamino]-methylene}-6-iodo-4H-isoquinoline-1,3-dione]: the IC50 in the assay with MCF-7 (3 days) is 4.3 µM; on cyclin B/CDK1 enzyme (setting [1]) it was above 50 µM; on cyclin E/CDK2 enzyme (setting [2]), above 50 µM; with HCT-116 (3 days), 1.8 µM; at cyclin D1/cdk 4 enzyme (setting [3]), 3.3 µM; in the assay with BT474 (setting [8]), 5.6 µM. For the same compound, the IC50 with LoVo (3 days) amounted to 3.2 µM.
Regarding `CCC1CCCN1Cc1ccc(N/C=C2\C(=O)NC(=O)c3ccc(I)cc32)cc1` (centres unmarked) [Example 436, 4-{[4-(2-Ethyl-pyrrolidin-1-ylmethyl)-phenylamino]-methylene}-6-iodo-4H-isoquinoline-1,3-dione], the IC50 in the assay on MCF-7 (3 days) was 1.5 µM; on cyclin B/CDK1 enzyme (setting [1]), above 50 µM; at cyclin E/CDK2 enzyme (setting [2]), above 50 µM; in the assay on HCT-116 (3 days) it was 2.5 µM; on cyclin D1/cdk 4 enzyme (setting [3]) it was 0.26 µM; in the assay on BT474 (setting [8]) it was 0.4 µM. Also, in the assay on LoVo (3 days), the IC50 amounted to 2.3 µM.
`O=C1NC(=O)c2ccc(-c3ccoc3)cc2/C1=C/Nc1ccc(CN2CCC(CCO)CC2)cc1` [Example 491, (4Z)-6-(3-Furyl)-4-{[(4-{[4-(2-hydroxyethyl)piperidin-1-yl]methyl}phenyl)amino]methylene}isoquinoline-1,3(2H,4H)-dione]: the IC50 in the assay on MCF-7 (3 days) was 1 µM; at cyclin B/CDK1 enzyme (setting [5]), above 50 µM; at cyclin E/CDK2 enzyme (setting [6]), above 50 µM; with HCT-116 (3 days), 3.5 µM; on cyclin D1/cdk 4 enzyme (setting [7]) it was 0.05 µM; in the assay on BT474 (setting [8]), 1.2 µM. Also, in the assay with LoVo (3 days), the IC50 was determined as 2.7 µM.
Regarding `O=C1NC(=O)c2ccc(-c3cccc(F)c3)cc2C1=CNCc1ccc(O)c(O)c1` [Example 768, 4-[(3,4-Dihydroxy-benzylamino)-methylene]-6-(3-fluoro-phenyl)-4H-isoquinoline-1,3-dione], the IC50 in the assay on MCF-7 (3 days) amounted to 28.4 µM; on cyclin B/CDK1 enzyme (setting [5]) it was 20.6 µM; at cyclin E/CDK2 enzyme (setting [6]) it was 9.6 µM; in the assay with HCT-116 (3 days), 27.4 µM; at cyclin D1/cdk 4 enzyme (setting [7]), 0.55 µM; in the assay on BT474 (setting [8]) it was 29.1 µM. In addition, the IC50 in the assay with LoVo (3 days) was 25.7 µM.
Consider `O=C1NC(=O)c2ccc(-c3ccco3)cc2/C1=C/Nc1ccc(CN2CCC[C@H]2CO)cc1` [Example 466, 6-Furan-2-yl-4-{[4-(2-hydroxymethyl-pyrrolidin-1-ylmethyl)-phenylamino]-methylene}-4H-isoquinoline-1,3-dione], for which the IC50 was 1.2 µM in the assay on MCF-7 (3 days); above 50 µM on cyclin B/CDK1 enzyme (setting [5]); above 50 µM on cyclin E/CDK2 enzyme (setting [6]); 2.1 µM in the assay on HCT-116 (3 days); 0.13 µM at cyclin D1/cdk 4 enzyme (setting [7]); 1.4 µM in the assay with BT474 (setting [8]). The IC50 in the assay on LoVo (3 days) was 2.1 µM.
For `COC(=O)[C@H]1CCCN1Cc1ccc(NC=C2C(=O)NC(=O)c3ccc(I)cc32)cc1` [Example 367, D-1-{4-[(6-Iodo-1,3-dioxo-2,3-dihydro-1H-isoquinolin-4-ylidenemethyl)-amino]-benzyl}-pyrrolidine-2-carboxylic acid methyl ester], the half-inhibitory concentration (IC50) with MCF-7 (three days) is 13 µM; at cyclin B/CDK1 enzyme (setting [1]), above 50 µM; at cyclin E/CDK2 enzyme (setting [2]), 43.4 µM; with HCT-116 (three days), 13 µM; on cyclin D1/cdk 4 enzyme (setting [3]), 12.6 µM; in the assay on BT474 (setting [4]), 15 µM. In addition, the IC50 with LoVo (three days) is 26 µM.
